According to PubChem BioAssay (NCI):
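Following 48 hours of exposure in 96-well plates, responses at five concentrations were used to interpolate endpoints linearly. Abbreviation: GI50, concentration required for 50% inhibition of growth. At the TGI there is no net growth.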

Assays:
Assay in all cases: NCI anticancer screen, dose series, 48 h
786-0 renal = test system: 786-0 renal
A498 renal = test system: A498 renal
A549 NSCLC = test system: A549 NSCLC
ACHN renal = test system: ACHN renal
BT-549 breast = test system: BT-549 breast
CAKI-1 renal = test system: CAKI-1 renal
CCRF-CEM leukemia = test system: CCRF-CEM leukemia
COLO 205 colon = test system: COLO 205 colon
DU-145 prostate = test system: DU-145 prostate
EKVX NSCLC = test system: EKVX NSCLC
HCC-2998 colon = test system: HCC-2998 colon
HCT-116 colon = test system: HCT-116 colon
HCT-15 colon = test system: HCT-15 colon
HL-60(TB) leukemia = test system: HL-60(TB) leukemia
HOP-62 NSCLC = test system: HOP-62 NSCLC
HOP-92 NSCLC = test system: HOP-92 NSCLC
HS 578T breast = test system: HS 578T breast
HT29 colon = test system: HT29 colon
IGROV1 ovarian = test system: IGROV1 ovarian
K-562 leukemia = test system: K-562 leukemia
KM12 colon = test system: KM12 colon
LOX IMVI melanoma = test system: LOX IMVI melanoma
M14 melanoma = test system: M14 melanoma
MALME-3M melanoma = test system: MALME-3M melanoma
MCF7 breast = test system: MCF7 breast
MDA-MB-231 breast = test system: MDA-MB-231 breast
MOLT-4 leukemia = test system: MOLT-4 leukemia

With `COc1ccc(C(=O)c2cc(C)c(OC)c(C)c2)c(OC)c1NC(C)=O` the GI50 (786-0 renal) was 0.0562 µM, the TGI (786-0 renal) was > 100 µM and the GI50 (A498 renal) was 0.0228 µM. The TGI (A498 renal) was 0.0795 µM, the GI50 (A549 NSCLC) was 0.389 µM and the TGI (A549 NSCLC) was > 100 µM. For the same compound, the GI50 (ACHN renal) was 0.0944 µM, the TGI (ACHN renal) was > 100 µM and the GI50 (BT-549 breast) was 0.258 µM. The TGI (BT-549 breast) was > 100 µM, the GI50 (CAKI-1 renal) was 0.0639 µM and the TGI (CAKI-1 renal) was > 100 µM. The GI50 (CCRF-CEM leukemia) was 2.4 µM, the TGI (CCRF-CEM leukemia) was > 100 µM and the GI50 (COLO 205 colon) was 0.299 µM. For the same compound, the TGI (COLO 205 colon) was 1.28 µM, the GI50 (DU-145 prostate) was 0.0483 µM and the TGI (DU-145 prostate) was > 100 µM. The GI50 (EKVX NSCLC) was 0.251 µM, the TGI (EKVX NSCLC) was > 100 µM and the GI50 (HCC-2998 colon) was 0.31 µM. For the same compound, the TGI (HCC-2998 colon) was > 100 µM, the GI50 (HCT-116 colon) was 0.439 µM and the TGI (HCT-116 colon) was > 100 µM. For the same compound, the GI50 (HCT-15 colon) was 0.452 µM, the TGI (HCT-15 colon) was > 100 µM and the GI50 (HL-60(TB) leukemia) was 0.309 µM. The TGI (HL-60(TB) leukemia) was 1.37 µM, the GI50 (HOP-62 NSCLC) was 0.239 µM and the TGI (HOP-62 NSCLC) was > 100 µM. The GI50 (HOP-92 NSCLC) was 1.02 µM, the TGI (HOP-92 NSCLC) was > 100 µM and the GI50 (HS 578T breast) was 0.0715 µM. For the same compound, the TGI (HS 578T breast) was > 100 µM, the GI50 (HT29 colon) was 0.468 µM and the TGI (HT29 colon) was > 100 µM. For the same compound, the GI50 (IGROV1 ovarian) was 0.529 µM, the TGI (IGROV1 ovarian) was > 100 µM and the GI50 (K-562 leukemia) was 0.937 µM. For the same compound, the TGI (K-562 leukemia) was > 100 µM, the GI50 (KM12 colon) was 0.153 µM and the TGI (KM12 colon) was > 100 µM. The GI50 (LOX IMVI melanoma) was 0.526 µM, the TGI (LOX IMVI melanoma) was > 100 µM and the GI50 (M14 melanoma) was 0.15 µM. The TGI (M14 melanoma) was > 100 µM, the GI50 (MALME-3M melanoma) was 1.17 µM and the TGI (MALME-3M melanoma) was > 100 µM. The GI50 (MCF7 breast) was 0.491 µM, the TGI (MCF7 breast) was > 100 µM and the GI50 (MDA-MB-231 breast) was 0.363 µM. The TGI (MDA-MB-231 breast) was > 100 µM, the GI50 (MOLT-4 leukemia) was 3.13 µM and the TGI (MOLT-4 leukemia) was > 100 µM.
